Laboratory results as given in US12295937B2, “Psychoactive medicines and their use for treating psychiatric and neurological conditions and disorders” (Transcend Therapeutics, Inc., priority 2021, dated 2025).
Read-outs that look alike come from different tables or passages of the source. Marks after values point to notes of the source that are not given here.

What was measured:
[1] = cited from earlier work
[2] = Methylone PTSD case series with long-term follow-up (CGI-I, safety); format: in vivo, human
Description: The patients were not given structured psychotherapy in conjunction with methylone treatment, which differs from recent studies of MDMA that emphasize the importance of a manualized psychedelic-assisted psychotherapy model.
No protected health information was disclosed, and no consent was obtained from patients for use of their archival data. Case narratives were systematically compiled from data collected as part of routine clinical work. Diagnoses were confirmed by an experienced clinician using semi-structured interviews. Baseline symptom severity was evaluated using the Clinical Global Impressions Scale-Severity (CGI-S). Symptom improvement was evaluated using the Clinical Global Impressions Scale-Improvement (CGI-I) following dosing. […] Because these case narratives were examined retrospectively from routine clinical care records, and not gathered prospectively in a research study, more specific validated rating scales for assessing PTSD symptoms were not available. Additionally, follow-up varied, with the length of follow-up ranging from one week (Case 2) to 15 years (Case 16).
Dosing summary: Methylone was administered orally. Other medications were not changed during methylone treatment. […] In several cases, treatment was continued, and, in some cases, the dose was further escalated in later sessions (see Table 5). Booster doses were included for 19 patients in one or more of the sessions. Starting doses were between 100 and 270 mg, and these as well as booster doses were selected based on clinical judgement.

[3] = Methylone case series, Cohorts 1 and 2 (CGI-S/CGI-I, safety); format: in vivo, human
Method: CGI-S scale was also evaluated in a subset of patients from Cohort 2 post-treatment. Cohort 2 was evaluated for any observed or reported safety events following a single dosing session. Clinical Global Improvement Scale • Clinical Global Impressions (CGI) scale includes 2 components: CGI-S (“severity”) and CGI-I (“improvement”).
Only sessions that included methylone dosing were counted as dosing sessions.
Single sessions occurred for 8 of the 28 cases with no booster in two of these cases. In the remainder of the cases, multiple sessions occurred, and booster doses were used in all or some of the remaining patients ([…]) with multiple booster doses used in some or all of the sessions in 15 patients.

[4] = Excipient compatibility study (assay, appearance, degradation products); format: physicochemical
Method: Analyses were conducted at t=0, 2, 4 and 8 weeks for appearance, assay, and related substances for samples stored in closed vials at 25° C./60% RH and 40° C./75% RH.
Excipient Compatibility Sample Mixtures: The excipients and API were dispensed individually by weight into 20 mL clear borosilicate (type I) glass vials to fill the appropriate weights as listed in Table 12. Table 12 lists mixtures of API with varied excipients and a stand-alone control sample of API alone. Each excipient mixture sample preparation was conducted using a clean spatula to mix the vial ingredients for 30-60 seconds. Each vial was properly labeled with the description and storage conditions. One vial was used for testing at the initial (t=0) time point. Three vials, closed, were placed at each storage condition to allow sampling at each time point and one vial, closed, was placed at each storage condition for overage.

[5] = rats, intraperitoneal; cited from earlier work
168 GPCRs [6] = target: 168 GPCRs (Homo sapiens, UniProt P32248); assay: β-arrestin GPCR screen (PathHunter / GPCRmax), antagonist mode; details: CCR7, Antagonist mode, 10 uM
168 GPCRs [7] = target: 168 GPCRs (Homo sapiens, UniProt Q16602); assay: as above; details: CALCRL-RAMP2, Antagonist mode, 10 uM
168 GPCRs [8] = target: 168 GPCRs (Homo sapiens, UniProt P43088); assay: as above; details: PTGFR, Antagonist mode, 10 uM
168 GPCRs [9] = target: 168 GPCRs (Homo sapiens, UniProt P51685); assay: as above; details: CCR8, Antagonist mode, 10 uM
168 GPCRs [10] = target: 168 GPCRs (Homo sapiens, UniProt P30874); assay: as above; details: SSTR2; Antagonist; 1 uM
168 GPCRs [11] = target: 168 GPCRs (Homo sapiens, UniProt P30556); assay: as above
168 GPCRs [12] = target: 168 GPCRs (Homo sapiens, UniProt Q16581); assay: as above; details: C3AR1, Antagonist mode, 10 uM
5HT2A receptor = target: T1, 5HT2A receptor (Homo sapiens, UniProt P28223); assay: GPCRmax screen, agonist mode, 5HT2A; format: cell-based; details: 1 or 10 mM
T1 construct: host or cells: PathHunter cell lines
T1 sequence (P28223 whole entry): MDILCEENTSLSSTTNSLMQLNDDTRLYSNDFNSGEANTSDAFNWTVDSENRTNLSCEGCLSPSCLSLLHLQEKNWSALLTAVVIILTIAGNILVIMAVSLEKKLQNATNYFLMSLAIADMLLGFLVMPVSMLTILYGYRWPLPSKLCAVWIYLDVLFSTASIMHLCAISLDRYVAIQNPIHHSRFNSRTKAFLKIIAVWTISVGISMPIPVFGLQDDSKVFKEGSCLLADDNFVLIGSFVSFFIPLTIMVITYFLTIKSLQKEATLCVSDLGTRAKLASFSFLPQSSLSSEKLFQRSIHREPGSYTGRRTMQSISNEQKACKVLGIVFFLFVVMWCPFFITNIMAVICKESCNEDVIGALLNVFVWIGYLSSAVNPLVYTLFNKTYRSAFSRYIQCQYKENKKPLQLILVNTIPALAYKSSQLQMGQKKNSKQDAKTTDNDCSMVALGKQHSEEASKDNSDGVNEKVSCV

168 GPCRs (Homo sapiens, UniProt P30556), sequence (P30556 whole entry): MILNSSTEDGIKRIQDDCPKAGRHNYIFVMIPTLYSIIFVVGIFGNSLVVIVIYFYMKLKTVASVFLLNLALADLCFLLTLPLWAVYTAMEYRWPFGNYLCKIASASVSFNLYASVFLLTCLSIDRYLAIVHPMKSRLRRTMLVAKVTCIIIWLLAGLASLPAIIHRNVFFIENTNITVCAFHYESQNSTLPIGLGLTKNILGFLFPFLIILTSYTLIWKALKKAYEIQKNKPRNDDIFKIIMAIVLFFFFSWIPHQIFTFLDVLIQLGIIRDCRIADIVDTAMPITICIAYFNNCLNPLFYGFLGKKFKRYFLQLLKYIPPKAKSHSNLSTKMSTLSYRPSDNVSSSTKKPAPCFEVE
168 GPCRs (Homo sapiens, UniProt P43088), sequence (P43088 whole entry): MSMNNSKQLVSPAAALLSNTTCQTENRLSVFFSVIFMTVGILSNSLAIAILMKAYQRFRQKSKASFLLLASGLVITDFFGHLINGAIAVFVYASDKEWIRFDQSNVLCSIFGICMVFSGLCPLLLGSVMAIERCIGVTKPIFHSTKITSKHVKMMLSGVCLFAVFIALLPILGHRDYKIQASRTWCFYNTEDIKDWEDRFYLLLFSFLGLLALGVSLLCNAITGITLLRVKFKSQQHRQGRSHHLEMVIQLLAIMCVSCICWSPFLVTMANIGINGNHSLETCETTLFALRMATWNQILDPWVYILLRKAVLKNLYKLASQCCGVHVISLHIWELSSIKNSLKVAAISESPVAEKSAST
168 GPCRs (Homo sapiens, UniProt P51685), sequence (P51685 whole entry): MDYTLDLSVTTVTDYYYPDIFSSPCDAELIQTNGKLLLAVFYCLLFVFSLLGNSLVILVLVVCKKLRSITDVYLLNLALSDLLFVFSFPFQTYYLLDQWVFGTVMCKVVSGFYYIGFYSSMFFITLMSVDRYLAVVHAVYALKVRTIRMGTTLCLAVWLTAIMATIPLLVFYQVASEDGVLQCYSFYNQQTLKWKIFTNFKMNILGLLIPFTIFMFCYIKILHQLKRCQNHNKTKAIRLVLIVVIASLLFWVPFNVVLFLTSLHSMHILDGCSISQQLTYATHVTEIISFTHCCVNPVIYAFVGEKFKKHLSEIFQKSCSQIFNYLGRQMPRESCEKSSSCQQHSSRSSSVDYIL
168 GPCRs (Homo sapiens, UniProt P32248), sequence (P32248 25-378): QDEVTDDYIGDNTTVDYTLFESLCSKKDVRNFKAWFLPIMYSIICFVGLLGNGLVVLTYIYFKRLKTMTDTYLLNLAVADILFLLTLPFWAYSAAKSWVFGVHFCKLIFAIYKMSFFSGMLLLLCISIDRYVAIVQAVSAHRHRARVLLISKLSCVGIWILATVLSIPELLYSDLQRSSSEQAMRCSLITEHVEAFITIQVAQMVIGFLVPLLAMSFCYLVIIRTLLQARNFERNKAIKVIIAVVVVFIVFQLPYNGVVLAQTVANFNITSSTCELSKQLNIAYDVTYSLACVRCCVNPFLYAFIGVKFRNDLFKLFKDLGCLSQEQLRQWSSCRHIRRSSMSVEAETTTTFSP
168 GPCRs (Homo sapiens, UniProt Q16581), sequence (Q16581 whole entry): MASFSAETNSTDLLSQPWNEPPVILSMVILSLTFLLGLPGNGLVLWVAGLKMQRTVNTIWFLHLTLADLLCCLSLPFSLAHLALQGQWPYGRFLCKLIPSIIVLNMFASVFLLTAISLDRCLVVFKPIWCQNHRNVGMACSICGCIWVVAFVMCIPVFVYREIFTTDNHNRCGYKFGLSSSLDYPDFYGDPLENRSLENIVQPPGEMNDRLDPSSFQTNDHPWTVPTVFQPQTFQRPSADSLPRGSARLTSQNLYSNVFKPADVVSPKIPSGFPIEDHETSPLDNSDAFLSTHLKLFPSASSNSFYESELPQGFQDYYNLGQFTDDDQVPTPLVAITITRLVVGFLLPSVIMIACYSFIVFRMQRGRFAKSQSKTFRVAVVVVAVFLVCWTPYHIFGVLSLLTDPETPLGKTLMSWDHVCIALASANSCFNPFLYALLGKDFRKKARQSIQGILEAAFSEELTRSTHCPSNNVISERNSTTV
168 GPCRs (Homo sapiens, UniProt Q16602), sequence (Q16602 23-461): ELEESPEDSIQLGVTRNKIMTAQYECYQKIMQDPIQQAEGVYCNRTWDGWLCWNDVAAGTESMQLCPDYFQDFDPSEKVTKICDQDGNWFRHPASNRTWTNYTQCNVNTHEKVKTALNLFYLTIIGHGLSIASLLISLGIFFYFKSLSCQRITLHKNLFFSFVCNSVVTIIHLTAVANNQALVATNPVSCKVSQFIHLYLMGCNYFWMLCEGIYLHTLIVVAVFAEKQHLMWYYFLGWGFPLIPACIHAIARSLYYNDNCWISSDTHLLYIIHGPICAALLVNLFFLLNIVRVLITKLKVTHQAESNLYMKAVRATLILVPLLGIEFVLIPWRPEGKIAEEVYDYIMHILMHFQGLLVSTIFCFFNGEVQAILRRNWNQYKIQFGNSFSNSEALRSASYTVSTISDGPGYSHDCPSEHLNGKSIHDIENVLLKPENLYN
168 GPCRs (Homo sapiens, UniProt P30874), sequence (P30874 whole entry): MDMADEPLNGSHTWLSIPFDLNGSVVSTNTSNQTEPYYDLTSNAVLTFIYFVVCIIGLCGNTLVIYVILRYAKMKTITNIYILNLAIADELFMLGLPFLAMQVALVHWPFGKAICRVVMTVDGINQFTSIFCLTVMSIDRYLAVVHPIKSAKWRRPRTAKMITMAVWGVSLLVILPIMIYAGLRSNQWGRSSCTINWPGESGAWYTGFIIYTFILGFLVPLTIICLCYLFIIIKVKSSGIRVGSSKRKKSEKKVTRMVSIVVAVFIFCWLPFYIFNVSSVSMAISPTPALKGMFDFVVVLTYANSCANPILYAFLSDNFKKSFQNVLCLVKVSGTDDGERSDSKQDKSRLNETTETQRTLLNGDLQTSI

Compound: CNC(C)C(=O)c1ccc2c(c1)OCO2 (centres unmarked) [Methylone, 3,4-methylenedioxy-N-methylcathinone]
- Cmax (geometric mean) ([1]; 50 mg oral, N = 3): 151.2 ng/mL
- AUC10hr (geometric mean) ([1]; 50 mg oral): 725 ng·h/mL
- AUC24hr (geometric mean) ([1]; 50 mg oral): 988 ng·h/mL
- AUCinf (geometric mean) ([1]; 50 mg oral): 1062 ng·h/mL
- Half-life (geometric mean) ([1]; 50 mg oral): 6.2 h
- Tmax (median) ([1]; 50 mg oral): 1.5 h
- Cmax (geometric mean) ([1]; 100 mg oral, N = 6): 283.9 ng/mL
- AUC10hr (geometric mean) ([1]; 100 mg oral): 1554 ng·h/mL
- AUC24hr (geometric mean) ([1]; 100 mg oral): 2232 ng·h/mL
- AUCinf (geometric mean) ([1]; 100 mg oral): 2410 ng·h/mL
- Half-life (geometric mean) ([1]; 100 mg oral): 6.0 h
- Tmax (median) ([1]; 100 mg oral): 2.5 h
- Cmax (geometric mean) ([1]; 150 mg oral, N = 5): 340.2 ng/mL
- AUC10hr (geometric mean) ([1]; 150 mg oral): 2153 ng·h/mL
- AUC24hr (geometric mean) ([1]; 150 mg oral): 3165 ng·h/mL
- AUCinf (geometric mean) ([1]; 150 mg oral): 3509 ng·h/mL
- Half-life (geometric mean) ([1]; 150 mg oral): 6.7 h
- Cmax (geometric mean) ([1]; 200 mg oral, N = 7): 594.2 ng/mL
- AUC10hr (geometric mean) ([1]; 200 mg oral): 3261 ng·h/mL
- AUC24hr (geometric mean) ([1]; 200 mg oral): 4676 ng·h/mL
- AUCinf (geometric mean) ([1]; 200 mg oral): 5116 ng·h/mL
- Half-life (geometric mean) ([1]; 200 mg oral): 6.5 h
- Time to reach maximum concentrations (Tmax) ([1]; oral 50 mg to 200 mg): 1 to 2 h
- half-life ([1]; oral 50 mg to 200 mg): 6 to 7 h
- Adverse events noted ([2]; 21 PTSD patients): four adverse events were noted in three of the 21 patients
- Patients much improved or very much improved per CGI-I ([2]; 21 PTSD patients): 81%
- Patients reporting a durable effect ([2]; of 17 patients with durability information): 16
- Patients achieving CGI-I 1 (very much improved) ([2]; of 21 PTSD patients): 9 patients
- Patients achieving CGI-I 2 (much improved) ([2]; of 21 PTSD patients): 8 patients
- Patients achieving a CGI-I of 1 or 2 ([2]; of 21 PTSD patients): 17 patients
- Patients achieving CGI-I 1 or 2 ([2]; patients with a single dose session (n=9)): 89%
- Patients with initial improvement after the initial session ([2]; patients with multiple dosing sessions (n=12)): 83%
- Adverse effects in healthy subjects ([3]; Cohort 1, 4 subjects, single session, total dose 790 or 870 mg): no adverse effects or after-effects were observed or reported
- Cases well tolerated with no safety events reported ([3]; Cohort 2, 25 of 28 cases): 89.3%
- Patients with initial improvement at the first methylone session ([3]; Cohort 2, 25 of 28 patients): ~90%
- Number of cases with CGI-I 2 ([3]; Cohort 2, N = 28): 13
- Number of cases with CGI-I 3 ([3]; Cohort 2, N = 28): 4
- Number of cases with CGI-I 4 ([3]; Cohort 2, N = 28): 0
- Number of cases with CGI-I 5 ([3]; Cohort 2, N = 28): 0
- Number of cases with CGI-I 6 ([3]; Cohort 2, N = 28): 0
- Number of cases with CGI-I 7 ([3]; Cohort 2, N = 28): 0
- Number of cases with CGI-I 1 (highest observed magnitude of improvement) ([3]; Cohort 2, N = 28 PTSD/MDD patients, oral): 11*
- Patients achieving CGI-I 1 or 2 ([3]; Cohort 2 overall): 86%
- Cases reporting a durable effect ([3]; MDD subset, 6 narratives with durability information): 5
- Patients achieving CGI-I 1 or 2 ([3]; MDD subset, 8/8 patients): 100%
- Patients achieving CGI-I 1 or 2 ([3]; PTSD subset, 16/20 patients): 80%
- Case narratives reporting a durable effect ([3]; PTSD subset, 16 narratives with durability information): 15
- Total Degradation Products ([4]; 2 Week 25° C. 60% RH): <LOQ
- Total Degradation Products ([4]; 2 Week 40° C. 75% RH): <LOQ
- Total Degradation Products ([4]; 4 Week 25° C. 60% RH): <LOQ
- Total Degradation Products ([4]; 8 Week 25° C. 60% RH): <LOQ
- Total Degradation Products ([4]; t = 0, LOQ ≥ 0.1%): <LOQ
- half-life [5]: 1 to 2 h
- % Activity (168 GPCRs [6]): −3.4%
- % Activity (168 GPCRs [7]): 7%
- % Activity (168 GPCRs [8]): 0%
- % Activity (168 GPCRs [9]): −0.3%
- % Activity (168 GPCRs [10]): −0.4%
- % Activity (168 GPCRs [11]; AGTR1, Antagonist mode, 10 uM): −1.4%
- % Activity (168 GPCRs [11]; AGTR1, Antagonist, 1 uM): 3.3%
- % Activity (168 GPCRs [12]): 0.3%
- Agonist % activity (5HT2A receptor): no agonist or antagonist activity
